Values quoted from earlier work in US20170007618A1, “SEROTONIN 2C RECEPTOR ANTAGONISTS TO PREVENT AND TREAT STRESS-RELATED TRAUMA DISORDERS” (Massachusetts Institute of Technology, priority 2015, published 2017).
Counter-ions that a name gives are not always drawn.

Key:
5-HT2B receptors = 5-HT2B receptors (Homo sapiens, UniProt P41595); conditions: 5-HT2C versus 5-HT2B
5-HT2A receptors = 5-HT2A receptors (Homo sapiens, UniProt P28223); conditions: 5-HT2C versus 5-HT2A
[1] = molecular target: T1, cloned human 5-HT2C receptor (Homo sapiens, UniProt P28335)
T1 sequence (P28335 33-458): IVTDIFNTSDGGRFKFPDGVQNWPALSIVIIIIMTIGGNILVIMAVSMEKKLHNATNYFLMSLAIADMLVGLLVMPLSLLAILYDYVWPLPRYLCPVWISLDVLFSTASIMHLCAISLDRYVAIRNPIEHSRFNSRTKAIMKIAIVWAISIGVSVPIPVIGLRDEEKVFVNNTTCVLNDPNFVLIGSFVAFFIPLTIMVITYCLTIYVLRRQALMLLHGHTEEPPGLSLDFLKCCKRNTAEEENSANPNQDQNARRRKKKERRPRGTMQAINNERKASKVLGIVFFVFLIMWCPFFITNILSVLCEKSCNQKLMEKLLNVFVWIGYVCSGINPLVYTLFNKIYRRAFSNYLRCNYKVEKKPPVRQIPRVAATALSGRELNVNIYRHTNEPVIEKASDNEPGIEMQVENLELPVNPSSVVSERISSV

5-HT2B receptors, sequence (P41595 whole entry): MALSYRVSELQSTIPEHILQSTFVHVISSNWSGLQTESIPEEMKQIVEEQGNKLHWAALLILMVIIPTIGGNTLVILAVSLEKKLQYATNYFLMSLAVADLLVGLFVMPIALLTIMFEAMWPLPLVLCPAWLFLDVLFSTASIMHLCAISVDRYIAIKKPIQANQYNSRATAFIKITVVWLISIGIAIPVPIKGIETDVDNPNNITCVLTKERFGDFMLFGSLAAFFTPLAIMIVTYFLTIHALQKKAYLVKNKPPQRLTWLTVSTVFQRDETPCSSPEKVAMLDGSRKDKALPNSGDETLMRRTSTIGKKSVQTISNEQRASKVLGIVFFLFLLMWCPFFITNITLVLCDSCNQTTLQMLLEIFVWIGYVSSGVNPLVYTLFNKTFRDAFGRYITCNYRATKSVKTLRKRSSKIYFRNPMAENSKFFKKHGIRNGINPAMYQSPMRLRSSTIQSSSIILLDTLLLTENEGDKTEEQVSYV
5-HT2A receptors, sequence (P28223 whole entry): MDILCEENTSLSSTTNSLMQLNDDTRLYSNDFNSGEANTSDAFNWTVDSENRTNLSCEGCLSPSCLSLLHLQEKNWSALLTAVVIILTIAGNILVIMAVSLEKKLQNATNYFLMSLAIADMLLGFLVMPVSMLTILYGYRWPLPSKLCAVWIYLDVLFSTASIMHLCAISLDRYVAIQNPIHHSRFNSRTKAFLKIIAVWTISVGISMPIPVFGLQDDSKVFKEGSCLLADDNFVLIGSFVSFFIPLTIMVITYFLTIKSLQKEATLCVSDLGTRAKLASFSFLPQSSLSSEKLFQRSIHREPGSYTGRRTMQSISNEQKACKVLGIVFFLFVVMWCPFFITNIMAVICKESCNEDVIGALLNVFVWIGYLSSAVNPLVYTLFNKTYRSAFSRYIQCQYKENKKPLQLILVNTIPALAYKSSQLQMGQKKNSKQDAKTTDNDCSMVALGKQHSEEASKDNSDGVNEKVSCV

Row | SMILES | selectivity over 5-HT2B receptors (5-HT2B receptors) | selectivity over 5-HT2A receptors (5-HT2A receptors) | pKi [1]
1 | COc1cc(OC)c(C(=O)CCCCN2CCC3(CC2)NC(=O)NC3=O)cc1NS(=O)(=O)c1ccc(C(F)(F)F)cc1 [RS 102221, 8-[5-(2,4-Dimethoxy-5-(4-trifluoromethylphenylsulphonamido)phenyl-5-oxopentyl]-1,3,8-triazaspiro[4.5]decane-2,4-dione hydrochloride] | 100 fold | 100 fold | 
2 | Cc1cc2c(cc1Cl)N(C(=O)Nc1ccc(Oc3cccnc3C)nc1)CC2 [SB 242084, 6-chloro-5-methyl-N-{6-[(2-methylpyridin-3-yl)oxy]pyridin-3-yl}indoline-1-carboxamide] | 100 fold | 158 fold | 
3 | Cl.Cn1ccc2cc(NC(=O)Nc3cccnc3)ccc21 [SB 200646A, N-(1-methyl-5-indolyl)-N′-(3-pyridyl) urea hydrochloride] |  |  | 6.9
